According to patent US12435023B2, “Crystal form of Treprostinil sodium salt and preparation method therefor” (Shanghai Forefront Pharmaceutical Co., Ltd, priority 2019, dated 2025):
Counter-ions that a name gives are not always drawn.

Tests used:
[1] = Water solubility at 25±2° C., dissolution observed within 30 minutes; settings: for solubility at 30 min: 25 °C, thermodynamic from solid; for Dissolution observed in water: 25±2° C., within 30 minutes, free acid 20 mg in 200 mL, salt forms about 100 mg in 1 mL
Description: 20 mg of Treprostinil free acid was weighed and added into a volumetric flask, 200 mL of water was added, and placed in a water bath pot (temperature was controlled at 25±2° C.), shook strongly for 30 seconds every 5 minutes, and the dissolution within 30 minutes was observed.

[2] = 60% relative humidity, according to WO2016055819; cited from earlier work
[3] = Hygroscopicity on storage at 25 degrees and 80% relative humidity for 24 hours; format: physicochemical; settings: 25 degrees
[4] = Accelerated stability at 40±2° C. and 75±5% relative humidity for 6 months; settings: 75±5% RH
Description: The purity of samples after stability test was determined by HPLC, the water content of samples after stability test was determined by Karl Fischer titration, and the crystal form of samples after stability test was determined by XRPD.

[5] = Hygroscopicity by dynamic vapor sorption (DVS); format: physicochemical; settings: for Water content: DVS
Description: Hygroscopicity is one of the key physicochemical properties of drugs and has a significant impact on drug stability, powderological properties and subsequent processing procedure.

For `CCCCC[C@H](O)CC[C@@H]1[C@H]2Cc3cccc(OCC(=O)O)c3C[C@H]2C[C@H]1O` [Treprostinil free acid, Treprostinil], the solubility at 30 min [1] was less than 0.1 mg/mL and the “Dissolution observed in water” value [1] was “insoluble”.

In the case of `CCCCC[C@H](O)CC[C@@H]1[C@H]2Cc3cccc(OCC(=O)O)c3C[C@H]2C[C@H]1O` [Form A, Treprostinil sodium salt], the Crystal form conversion [2] is given as “converted into Form C”.

With `CCCCC[C@H](O)CC[C@@H]1[C@H]2Cc3cccc(OCC(=O)[O-])c3C[C@H]2C[C@H]1O.[Na+]` [Treprostinil sodium salt] the solubility at 30 min [1] was greater than 100 mg/mL, the “Dissolution observed in water” value [1] was “completely dissolved” and the “Behaviour of the solid on humid storage” value [3] was “deliquesced into a viscous solution”. For the same molecule, the Hygroscopicity [3] was “extremely hygroscopic”, the Appearance ([4]; 0 day) was “Off-white” and the “Purity (HPLC) after stability test” value ([4]; 0 day) was 99.97%. The “Water (Karl Fischer) after stability test” value (shortened to “Water (Karl Fischer)”) ([4]; 0 day) was 20.1%, the Appearance ([4]; 1 month) was “Off-White” and the “Purity (HPLC) after stability test” value ([4]; 1 month) was 99.97%. For the same molecule, the “Water (Karl Fischer)” value ([4]; 1 month) was 20.4%, the Appearance ([4]; 3 months) was “Off-white” and the “Purity (HPLC) after stability test” value ([4]; 3 months) was 99.96%. The “Water (Karl Fischer)” value ([4]; 3 months) was 20.0%, the Appearance ([4]; 6 months) was “Off-white” and the “Chemical stability and solid-state stability” value ([4]; 6 months) was “excellent chemical stability and solid-state stability”. The “Purity (HPLC) after stability test” value ([4]; 6 months) was 99.98%, the “Water (Karl Fischer)” value ([4]; 6 months) was 20.2% and the Water content ([5]; 40.0 RH % / 25° C.) was 18.6 wt %. The Water content ([5]; 45.0 RH % / 25° C.) was 18.7 wt %, the Water content ([5]; 50.0 RH % / 25° C.) was 18.7 wt % and the Water content ([5]; 55.0 RH % / 25° C.) was 18.8 wt %. The Water content ([5]; 60.0 RH % / 25° C.) was 18.8 wt %, the Water content ([5]; 65.0 RH % / 25° C.) was 18.9 wt % and the Water content ([5]; 70.0 RH % / 25° C.) was 18.9 wt %. The Water content ([5]; 75.0 RH % / 25° C.) was 19.0 wt %, the Water content ([5]; 80.0 RH % / 25° C.) was 19.7 wt % and the Water content ([5]; 85.0 RH % / 25° C.) was 19.9 wt %. For the same molecule, the Water content ([5]; 90.0 RH % / 25° C.) was 20.5 wt %, the Water content ([5]; 95.0 RH % / 25° C.) was 22.6 wt % and the “Hygroscopicity according to the definition in European Pharmacopoeia” value ([5]; relative humidity 40% to 80%) was “slight hygroscopicity”. For the same molecule, the “Increasing value of the water content, i.e., hygroscopicity” value ([5]; relative humidity increased from 40% to 80%) was 1.1 wt %.
